# Literature values in patent US20170173276A1, “SYSTEM AND METHOD FOR DELIVERING AN ANTI-ADHESIVE SUBSTANCE TO A BODY CAVITY” (Northgate Technologies Inc., priority 2003, published 2017).
# Key:
# [1] = general/typical value
# [2] = administration in liquid form; shown in some studies
half life [1],Compound,post-operative shoulder pain [2]
1 to 2 h,unfractionated heparin,
4 to 5 h,low molecular weight heparin,
,CCCCN1CCCCC1C(=O)Nc1c(C)cccc1C (stereo not drawn) [Bupivacaine],reducing post-operative shoulder pain
